Reference: PubChem BioAssay (NCI)
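Values below derive from 48-hour exposures of cells grown in 96-well plates, with endpoints linearly interpolated between the two concentrations bracketing the appropriate inhibition level. TGI is the concentration that stops growth completely.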

Legend:
Experiment in all cases: inhibition of tumour cell growth, NCI panel, 48 h
HCC-2998 colon = test system: HCC-2998 colon
HS 578T breast = test system: HS 578T breast
MALME-3M melanoma = test system: MALME-3M melanoma
HCT-15 colon = test system: HCT-15 colon
UO-31 renal = test system: UO-31 renal
SNB-19 CNS = test system: SNB-19 CNS
EKVX NSCLC = test system: EKVX NSCLC
MDA-MB-435 = test system: MDA-MB-435
SF-268 CNS = test system: SF-268 CNS
NCI-H460 lung = test system: NCI-H460 lung
HOP-92 NSCLC = test system: HOP-92 NSCLC

SMILES: CC(Nc1cc(Cl)cc(Cl)c1)c1ccncc1 (stereo not drawn)
- TGI (HCC-2998 colon): 37.1 µM
- TGI (HS 578T breast): > 100 µM
- TGI (MALME-3M melanoma): 54.9 µM
- TGI (HCT-15 colon): > 100 µM
- TGI (UO-31 renal): 27.3 µM
- TGI (SNB-19 CNS): > 100 µM
- TGI (EKVX NSCLC): 59.9 µM
- TGI (MDA-MB-435): 47.5 µM
- TGI (SF-268 CNS): 51.9 µM
- TGI (NCI-H460 lung): 73.3 µM

SMILES: COc1cc(C(C#N)NNC(=O)c2ccccc2O)ccc1O (stereo not drawn)
- TGI (MALME-3M melanoma): > 100 µM
- TGI (HCT-15 colon): > 100 µM
- TGI (UO-31 renal): 3.28 µM
- TGI (HOP-92 NSCLC): 97.3 µM
- TGI (SF-268 CNS): > 100 µM
- TGI (NCI-H460 lung): > 100 µM

SMILES: O=c1[nH]cnc2c1ncn2[C@H]1CO[C@@H](CO)[C@@H]1O
- TGI (HCC-2998 colon): > 100 µM
- TGI (HS 578T breast): > 100 µM
- TGI (MALME-3M melanoma): > 100 µM
- TGI (HCT-15 colon): > 100 µM
- TGI (UO-31 renal): > 100 µM
- TGI (HOP-92 NSCLC): > 100 µM
- TGI (EKVX NSCLC): > 100 µM
- TGI (MDA-MB-435): > 100 µM
- TGI (SF-268 CNS): > 100 µM
- TGI (NCI-H460 lung): > 100 µM

SMILES: O=C(CSc1nc2ccc(I)cc2c(=O)n1Cc1ccccc1)Nc1ccc(Br)cc1
- TGI (HS 578T breast): 62.7 µM
- TGI (MALME-3M melanoma): 61.6 µM
- TGI (HCT-15 colon): > 100 µM
- TGI (UO-31 renal): 0.382 µM
- TGI (HOP-92 NSCLC): > 100 µM
- TGI (SNB-19 CNS): > 100 µM
- TGI (EKVX NSCLC): 38.9 µM
- TGI (MDA-MB-435): > 100 µM
- TGI (SF-268 CNS): 28 µM

SMILES: COC(=O)c1ccc(OCc2ccc3oc(=O)c(-c4ccccc4)nc3c2)cc1
- TGI (HCC-2998 colon): > 100 µM
- TGI (MALME-3M melanoma): > 100 µM
- TGI (HCT-15 colon): > 100 µM
- TGI (UO-31 renal): > 100 µM
- TGI (SNB-19 CNS): > 100 µM
- TGI (EKVX NSCLC): > 100 µM
- TGI (SF-268 CNS): > 100 µM
- TGI (NCI-H460 lung): > 100 µM

SMILES: COc1nc2c(c(=O)n1C)N[C@@H]1[C@@H](O)[C@H](O)CO[C@@H]1N2
- TGI (HS 578T breast): > 100 µM
- TGI (MALME-3M melanoma): > 100 µM
- TGI (HCT-15 colon): > 100 µM
- TGI (UO-31 renal): > 100 µM
- TGI (SNB-19 CNS): > 100 µM
- TGI (EKVX NSCLC): > 100 µM
- TGI (MDA-MB-435): > 100 µM
- TGI (SF-268 CNS): > 100 µM
- TGI (NCI-H460 lung): > 100 µM

SMILES: COc1cc2c(cc1OCCCC(=O)Nc1cc(C(=O)Nc3cc(C(=O)NCCCN(C)C)n(C)n3)n(C)n1)N=CC1CCCN1C2=O (stereo not drawn)
- TGI (HCC-2998 colon): 37.9 µM
- TGI (MALME-3M melanoma): 31.5 µM
- TGI (HCT-15 colon): 37.6 µM
- TGI (UO-31 renal): 30.4 µM
- TGI (HOP-92 NSCLC): 33.2 µM
- TGI (SNB-19 CNS): 34.2 µM
- TGI (EKVX NSCLC): > 100 µM
- TGI (MDA-MB-435): 39 µM
- TGI (SF-268 CNS): 41.2 µM
- TGI (NCI-H460 lung): > 100 µM

SMILES: Cc1ccc(-n2c(C)nc3c2C(=O)c2ccccc2C3=O)cc1
- TGI (HCC-2998 colon): > 100 µM
- TGI (MALME-3M melanoma): 51.5 µM
- TGI (HCT-15 colon): > 100 µM
- TGI (UO-31 renal): > 100 µM
- TGI (HOP-92 NSCLC): > 100 µM
- TGI (SNB-19 CNS): > 100 µM
- TGI (EKVX NSCLC): > 100 µM
- TGI (SF-268 CNS): > 100 µM
- TGI (NCI-H460 lung): 19.5 µM

SMILES: CSc1n[n+](C)cc(N)c1N
- TGI (HCC-2998 colon): > 100 µM
- TGI (MALME-3M melanoma): > 100 µM
- TGI (HCT-15 colon): > 100 µM
- TGI (UO-31 renal): > 100 µM
- TGI (HOP-92 NSCLC): 98 µM
- TGI (SNB-19 CNS): 97.7 µM
- TGI (EKVX NSCLC): > 100 µM
- TGI (MDA-MB-435): > 100 µM

SMILES: Clc1ccc(-c2nc(-c3ccc(Cl)cc3)[s+]s2)cc1
- TGI (HCC-2998 colon): > 100 µM
- TGI (HS 578T breast): > 100 µM
- TGI (MALME-3M melanoma): 77.7 µM
- TGI (HCT-15 colon): > 100 µM
- TGI (UO-31 renal): > 100 µM
- TGI (SNB-19 CNS): > 100 µM
- TGI (EKVX NSCLC): > 100 µM
- TGI (MDA-MB-435): > 100 µM
- TGI (SF-268 CNS): > 100 µM
- TGI (NCI-H460 lung): > 100 µM

SMILES: COc1ccc(-c2cc(-c3ccc(Nc4ccnc5cc(Cl)ccc45)cc3)nc(N)c2C#N)c2ccccc12
- TGI (HCC-2998 colon): > 100 µM
- TGI (MALME-3M melanoma): > 100 µM
- TGI (HCT-15 colon): > 100 µM
- TGI (UO-31 renal): > 100 µM
- TGI (SNB-19 CNS): > 100 µM
- TGI (EKVX NSCLC): > 100 µM
- TGI (MDA-MB-435): > 100 µM
- TGI (SF-268 CNS): > 100 µM
- TGI (NCI-H460 lung): > 100 µM

SMILES: CC1(C)CCOC(=O)C(Cl)CC1Cl (stereo not drawn)
- TGI (HCC-2998 colon): > 100 µM
- TGI (HS 578T breast): > 100 µM
- TGI (MALME-3M melanoma): > 100 µM
- TGI (HCT-15 colon): > 100 µM
- TGI (SNB-19 CNS): > 100 µM
- TGI (EKVX NSCLC): > 100 µM
- TGI (MDA-MB-435): > 100 µM
- TGI (SF-268 CNS): > 100 µM
- TGI (NCI-H460 lung): > 100 µM

SMILES: O=C1/C(=C/c2cccs2)N=C(c2ccccc2)N1C1Nc2cc3c(cc2S1)NC(N1C(=O)/C(=C/c2cccs2)N=C1c1ccccc1)S3 (stereo not drawn)
- TGI (HCC-2998 colon): 43.3 µM
- TGI (HS 578T breast): 61.5 µM
- TGI (HCT-15 colon): 34.7 µM
- TGI (UO-31 renal): > 100 µM
- TGI (HOP-92 NSCLC): > 100 µM
- TGI (EKVX NSCLC): 43.6 µM
- TGI (MDA-MB-435): 42.6 µM
- TGI (SF-268 CNS): 47.5 µM
- TGI (NCI-H460 lung): > 100 µM

SMILES: CC(NC(=O)c1ccc(OP(=O)(OCC2=CC(=O)c3ccccc3C2=O)N(C)CCCCCl)cc1)c1ccc(OCC2CCCCC2)c(C(N)=O)c1 (stereo not drawn)
- TGI (HCC-2998 colon): 4.05 µM
- TGI (HS 578T breast): 21.7 µM
- TGI (MALME-3M melanoma): 3.97 µM
- TGI (HCT-15 colon): 24.7 µM
- TGI (UO-31 renal): 21.9 µM
- TGI (HOP-92 NSCLC): 19.6 µM
- TGI (SNB-19 CNS): 35.1 µM
- TGI (MDA-MB-435): 5.68 µM
- TGI (SF-268 CNS): 26.2 µM
- TGI (NCI-H460 lung): 22.9 µM

SMILES: CCCc1ccc(N=Cc2cc(OC)c(OC)c(OC)c2)cc1
- TGI (MALME-3M melanoma): > 100 µM
- TGI (HCT-15 colon): > 54.6 µM
- TGI (UO-31 renal): > 100 µM
- TGI (HOP-92 NSCLC): > 100 µM
- TGI (SNB-19 CNS): > 100 µM
- TGI (EKVX NSCLC): > 100 µM
- TGI (SF-268 CNS): > 100 µM
- TGI (NCI-H460 lung): > 100 µM

SMILES: COc1cccc(-c2cc(=O)c3cc(C)cnc3[nH]2)c1
- TGI (HCC-2998 colon): 2.67 µM
- TGI (HS 578T breast): > 100 µM
- TGI (MALME-3M melanoma): > 100 µM
- TGI (UO-31 renal): 3.59 µM
- TGI (SNB-19 CNS): > 100 µM
- TGI (EKVX NSCLC): > 100 µM
- TGI (MDA-MB-435): 0.0686 µM
- TGI (SF-268 CNS): > 100 µM
- TGI (NCI-H460 lung): > 100 µM

SMILES: CC1=C2N3C[C@@H](n4c(=O)n(C)c(=O)n43)C23CCC1n1c(=O)n(C)c(=O)n13
- TGI (HCC-2998 colon): > 100 µM
- TGI (MALME-3M melanoma): > 100 µM
- TGI (HCT-15 colon): 52.8 µM
- TGI (UO-31 renal): > 100 µM
- TGI (SNB-19 CNS): > 100 µM
- TGI (EKVX NSCLC): > 100 µM
- TGI (SF-268 CNS): > 100 µM
- TGI (NCI-H460 lung): > 100 µM

SMILES: C/C(=N/O)c1cccc(Nc2nc3ccccc3c3[nH]c4ccccc4c23)c1
- TGI (HS 578T breast): 21.4 µM
- TGI (MALME-3M melanoma): 13.8 µM
- TGI (HCT-15 colon): 10.6 µM
- TGI (UO-31 renal): 12 µM
- TGI (HOP-92 NSCLC): 6.95 µM
- TGI (SNB-19 CNS): 19.2 µM
- TGI (EKVX NSCLC): 7.38 µM
- TGI (MDA-MB-435): 7.52 µM
- TGI (SF-268 CNS): 6.24 µM
- TGI (NCI-H460 lung): 4.74 µM

SMILES: c1ccc(N=NNNc2ccc(-c3nc4ccccc4[nH]3)cc2)cc1
- TGI (HS 578T breast): 89.1 µM
- TGI (MALME-3M melanoma): 77.3 µM
- TGI (HCT-15 colon): > 100 µM
- TGI (UO-31 renal): > 100 µM
- TGI (HOP-92 NSCLC): > 100 µM
- TGI (SNB-19 CNS): > 100 µM
- TGI (EKVX NSCLC): > 100 µM
- TGI (MDA-MB-435): > 100 µM
- TGI (NCI-H460 lung): > 100 µM

SMILES: O=C(c1cccs1)N(C(=O)N1CCC(c2ccccc2)CC1)c1ccccc1
- TGI (HS 578T breast): > 100 µM
- TGI (MALME-3M melanoma): > 100 µM
- TGI (HCT-15 colon): > 100 µM
- TGI (UO-31 renal): 76.9 µM
- TGI (SNB-19 CNS): > 100 µM
- TGI (EKVX NSCLC): 52.9 µM
- TGI (MDA-MB-435): > 100 µM
- TGI (SF-268 CNS): > 100 µM
- TGI (NCI-H460 lung): > 100 µM

SMILES: c1ccc2c(c1)SC1Sc3ccccc3[S+]21 (stereo not drawn)
- TGI (HS 578T breast): > 100 µM
- TGI (MALME-3M melanoma): 15.5 µM
- TGI (HCT-15 colon): > 79.5 µM
- TGI (UO-31 renal): 50.9 µM
- TGI (HOP-92 NSCLC): 69.9 µM
- TGI (SNB-19 CNS): > 100 µM
- TGI (EKVX NSCLC): 52.5 µM
- TGI (MDA-MB-435): 60.9 µM
- TGI (SF-268 CNS): 39.8 µM
- TGI (NCI-H460 lung): > 70.7 µM

SMILES: O=C1NC(N2CCOCC2)=N/C1=C\c1ccccc1O
- TGI (HS 578T breast): > 100 µM
- TGI (MALME-3M melanoma): > 100 µM
- TGI (HCT-15 colon): > 100 µM
- TGI (UO-31 renal): > 100 µM
- TGI (HOP-92 NSCLC): > 100 µM
- TGI (SNB-19 CNS): > 100 µM
- TGI (EKVX NSCLC): > 100 µM
- TGI (MDA-MB-435): > 100 µM
- TGI (SF-268 CNS): > 100 µM
